Reference: the NIST ThermoML archive (doi:10.1016/j.tca.2018.11.018)

Test: xn = mol fraction of the nth substance listed
Settings: 100 kPa, Liquid; for viscosity: Falling or rolling sphere viscometry; for mass density: Vibrating tube method

CC[N+]1(C)CCCCC1.[Br-] [N-ethyl-N-methylpiperidinium bromide] + O
Settings	mass density [kg/m3]	viscosity [mPa·s]
298.15 K, x1 = 0.02	1042.3	1.263
298.15 K, x1 = 0.046	1088.3	2.026
298.15 K, x1 = 0.065	1116.9	2.813
298.15 K, x1 = 0.085	1141.4	3.992
298.15 K, x1 = 0.11	1167.4	6.16
298.15 K, x1 = 0.14	1192.2	11.35
298.15 K, x1 = 0.18	1217.8	20.55
298.15 K, x1 = 0.221	1237.8	36.06
298.15 K, x1 = 0.27	1255.2	68.76
298.15 K, x1 = 0.321	1268.9	135.3
303.15 K, x1 = 0.02	1040.5	1.124
303.15 K, x1 = 0.046	1085.9	1.783
303.15 K, x1 = 0.065	1114.2	2.444
303.15 K, x1 = 0.085	1138.5	3.419
303.15 K, x1 = 0.11	1164.3	5.175
303.15 K, x1 = 0.14	1189	9.449
303.15 K, x1 = 0.18	1214.4	16.67
303.15 K, x1 = 0.221	1234.4	28.38
303.15 K, x1 = 0.27	1251.8	51.92
303.15 K, x1 = 0.321	1265.5	98.65
308.15 K, x1 = 0.02	1038.6	1.011
308.15 K, x1 = 0.046	1083.5	1.59
308.15 K, x1 = 0.065	1111.5	2.147
308.15 K, x1 = 0.085	1135.5	2.967
308.15 K, x1 = 0.11	1161.2	4.41
308.15 K, x1 = 0.14	1185.7	7.861
308.15 K, x1 = 0.18	1211	13.6
308.15 K, x1 = 0.221	1230.9	22.48
308.15 K, x1 = 0.27	1248.4	39.91
308.15 K, x1 = 0.321	1262.1	73.14
313.15 K, x1 = 0.02	1036.4	0.915
313.15 K, x1 = 0.046	1081.1	1.421
313.15 K, x1 = 0.065	1108.7	1.901
313.15 K, x1 = 0.085	1132.5	2.595
313.15 K, x1 = 0.11	1158	3.8
313.15 K, x1 = 0.14	1182.3	6.584
313.15 K, x1 = 0.18	1207.5	11.17
313.15 K, x1 = 0.221	1227.4	18.06
313.15 K, x1 = 0.27	1244.9	31
313.15 K, x1 = 0.321	1258.6	54.37
318.15 K, x1 = 0.02	1034.1	0.834
318.15 K, x1 = 0.046	1078.7	1.279
318.15 K, x1 = 0.065	1105.9	1.697
318.15 K, x1 = 0.085	1129.5	2.287
318.15 K, x1 = 0.11	1154.8	3.301
318.15 K, x1 = 0.14	1178.9	5.574
318.15 K, x1 = 0.18	1204.1	9.251
318.15 K, x1 = 0.221	1223.9	14.7
318.15 K, x1 = 0.27	1241.4	24.63
318.15 K, x1 = 0.321	1255.2	42.07
323.15 K, x1 = 0.02	1031.6	0.767
323.15 K, x1 = 0.046	1075.9	1.162
323.15 K, x1 = 0.065	1102.9	1.522
323.15 K, x1 = 0.085	1126.3	2.045
323.15 K, x1 = 0.11	1151.5	2.895
323.15 K, x1 = 0.14	1175.5	4.742
323.15 K, x1 = 0.18	1200.6	7.76
323.15 K, x1 = 0.221	1220.4	12.15
323.15 K, x1 = 0.27	1237.9	19.99
323.15 K, x1 = 0.321	1251.8	33.03
328.15 K, x1 = 0.02	1029	0.709
328.15 K, x1 = 0.046	1073	1.063
328.15 K, x1 = 0.065	1099.9	1.378
328.15 K, x1 = 0.085	1123.1	1.83
328.15 K, x1 = 0.11	1148.1	2.563
328.15 K, x1 = 0.14	1172.1	4.087
328.15 K, x1 = 0.18	1197	6.616
328.15 K, x1 = 0.221	1216.9	10.15
328.15 K, x1 = 0.27	1234.4	16.44
328.15 K, x1 = 0.321	1248.3	26.76
333.15 K, x1 = 0.02	1026.3	0.656
333.15 K, x1 = 0.046	1070.2	0.976
333.15 K, x1 = 0.065	1096.7	1.249
333.15 K, x1 = 0.085	1119.9	1.65
333.15 K, x1 = 0.11	1144.7	2.285
333.15 K, x1 = 0.14	1168.6	3.555
333.15 K, x1 = 0.18	1193.5	5.691
333.15 K, x1 = 0.221	1213.4	8.658
333.15 K, x1 = 0.27	1230.9	13.81
333.15 K, x1 = 0.321	1244.9	21.95
338.15 K, x1 = 0.02	1023.5	0.616
338.15 K, x1 = 0.046	1067.1	0.9
338.15 K, x1 = 0.065	1093.5	1.142
338.15 K, x1 = 0.085	1116.9	1.495
338.15 K, x1 = 0.11	1141.4	2.046
338.15 K, x1 = 0.14	1165.1	3.13
338.15 K, x1 = 0.18	1189.9	4.925
338.15 K, x1 = 0.221	1209.8	7.418
338.15 K, x1 = 0.27	1227.4	11.66
338.15 K, x1 = 0.321	1241.4	18.17
343.15 K, x1 = 0.02	1020.4	0.579
343.15 K, x1 = 0.046	1063.9	0.835
343.15 K, x1 = 0.065	1090.3	1.05
343.15 K, x1 = 0.085	1113.8	1.363
343.15 K, x1 = 0.11	1137.9	1.845
343.15 K, x1 = 0.14	1161.5	2.616
343.15 K, x1 = 0.18	1186.3	4.343
343.15 K, x1 = 0.221	1206.2	6.433
343.15 K, x1 = 0.27	1223.9	10.03
343.15 K, x1 = 0.321	1238	15.35
348.15 K, x1 = 0.02	1016.6	0.548
348.15 K, x1 = 0.046	1060.6	0.778
348.15 K, x1 = 0.065	1087	0.967
348.15 K, x1 = 0.085	1110.3	1.247
348.15 K, x1 = 0.11	1134.3	1.67
348.15 K, x1 = 0.14	1157.9	2.352
348.15 K, x1 = 0.18	1182.7	3.798
348.15 K, x1 = 0.221	1202.6	5.613
348.15 K, x1 = 0.27	1220.3	8.668
348.15 K, x1 = 0.321	1234.5	13.11
